Like-named read-outs stand apart in the source and are kept apart here.
Tests used:
Candida albicans = details: even numbered C8 to C18 fatty acids screened; cited from earlier work
Staphlycoccus aureous = details: even numbered C8 to C18 fatty acids screened; cited from earlier work
Streptococcus Group A = details: even numbered C8 to C18 fatty acids screened; cited from earlier work
[1] = Highest aqueous concentration before salt precipitates; type: physicochemical; details: room temperature; above this insoluble salt precipitates
Source text: The final salt (soap) product, ammonium nonanoate, is made by neutralization by mixing the oleic-derived nonanoic acid with an equal molar amount of ammonia dissolved in water until a clear one-phase solution with a pH range of 7.5 to 8.5 occurs. At this point all of the acid is converted to ammonium salt: none remains in the product. […] The final concentration of ammonium nonanoate depends on the amount of water used. The highest concentration that can be made is approximately 40% since above this concentration at room temperature, insoluble salt precipitates as a solid.

mammals and birds = details: EPA Biochemical Division registration as bioherbicide; cited from earlier work
[2] = test system: Escherichia coli (gram negative); assay: Suspension time-kill test of aqueous ammonium nonanoate, survivors assayed after neutralization; type: cell-based; details: 1% aqueous solution, 1 minute exposure, ambient temperature
Protocol: (§1) There were no other ingredients in these solutions except the ammonium salts and water. […] Suspensions of test bacteria were exposed to the 1% and 2% ammonium nonanoate solutions for specified exposure times at ambient temperature. After exposure, aliquots of the suspensions were transferred to neutralizer and assayed for survivors. Appropriate culture purity, neutralizer sterility, test population, and neutralization confirmation controls were performed. […] This is a reduction of live bacteria of >99.999%.

[3] = test system: Enterococcus faecalis (gram positive); assay: as above; type: cell-based; details: 1% aqueous solution, 1 minute exposure, ambient temperature
Protocol: as §1

[4] = test system: pseudomonas aeruginosa (gram negative); assay: Suspension time-kill test of aqueous ammonium nonanoate; type: cell-based; details: 2% aqueous solution, 1 minute
Protocol: as §1

Staphylococcus aureous = assay: as above; type: cell-based; details: 2% aqueous solution, 2 minutes
Protocol: as §1

[5] = according to the EPA; cited from earlier work
human skin = details: 12% solution, 48 hr. closed patch test; cited from earlier work
rats [6] = details: cited from earlier work
rats [7] = details: cited from earlier work; for LD50: oral, Federal Register
mice = details: oral, Federal Register; cited from earlier work

CCCCCCCCCC(=O)O [capric acid]
antimicrobial activity relative to other fatty acids tested (Candida albicans): highest activity
antimicrobial activity relative to other fatty acids tested (Staphlycoccus aureous): highest activity
antimicrobial activity relative to other fatty acids tested (Streptococcus Group A): highest activity

CCCCCCCCC(=O)O.N [ammonium nonanoate]
highest concentration that can be made in water [1]: approximately 40%
toxicity to mammals and birds (mammals and birds): non-toxic
log reduction in the population [2]: 5 log
reduction of live bacteria [2]: > 99.999%
log reduction in the population [3]: 5 log
reduction of live bacteria [3]: > 99.999%
reduction in population [4]: > 99.999%
reduction in population (Staphylococcus aureous): > 99.999%
time to biodegradation after formation [5]: ≤ 24 h

CCCCCCCCC(=O)O [nonanoic acid]
irritation on human skin (human skin): no irritation
mortality (rats [6]; 0.46 mg/liter as an aerosol for four hours): no mortality
symptoms of toxicity (rats [6]; atmospheric concentration (125 ppm), 6 hours): no symptoms of toxicity
oral LD50 (rats [7]; male rats): > 9,000 mg/kg
LD50 (rats [7]; rats, indicated by no death at 3,200 mg/kg): over 3,200 mg/kg
LD50 (rats [7]; rats): 5,000 mg/kg
oral LD50 (rats [7]; rats, Patty's Industrial Hygiene and Toxicology): 15 g/kg
death of rats (rats [7]; undiluted, oral, 3,200 mg/kg body weight, Federal Register Vol. 69 No. 52 p. 12672): did not cause death of any of the rats
LD50 (mice): 5,000 mg/kg

Reference: patent publication US9980490B1, “Method of disinfecting bacterial contaminated surfaces or removing bacteria from contaminated surfaces” (priority 2014, dated 2018)
